In article PMC4226674, “A phase I trial of the HIV protease inhibitor nelfinavir in adults with solid tumors” (Oncotarget, 2014):
Like-named read-outs stand apart in the source and are kept apart here.

What was measured:
[1] = Protocol: This single institution, open-label, Phase Ia dose escalation study was performed to establish the MTD and DLT of nelfinavir in subjects with advanced refractory solid tumors. The study used a modified Fibonacci scheme, in which cohorts of three to six subjects were entered at each dose level until two patients developed DLT. If two or more subjects encountered DLT, then the MTD was exceeded. The MTD was defined as the dose level at which less than 2 of 6 subjects experienced DLT. Each cycle lasted 21 days. Up to 6 additional patients were allowed to be enrolled at the MTD in order to better establish potential rates of toxicity.
Physical examinations, toxicity assessments and laboratory analyses were conducted weekly during cycle 1 and then every three weeks beginning cycle 2.
The starting dose of nelfinavir was the FDA-approved dose in HIV patients of 1250 mg twice daily, which comprised dose level (DL) 1. Dose escalation proceeded in 625 mg, twice-daily increments (DL2: 1875 mg, DL3: 2500 mg, DL4: 3125 mg, DL5: 3750 mg, DL6: 4375 mg).
Toxicity was graded according to the National Cancer Institute Common Toxicity Criteria, version 3.0.

[2] = Nelfinavir plasma pharmacokinetics (HPLC-MS, noncompartmental); assay type: in vivo, human
Protocol: To determine CYP3A4 phenotype, a single 3 mg oral dose of midazolam hydrochloride, a CYP3A4 substrate, was administered at day -2 (2 days prior to commencing nelfinavir) and again at steady state (cycle 1 day 20). Serial venous blood samples were collected at 15, 30, 60, 120, 180, 240, and 300 minutes following administration of midazolam. Nelfinavir pharmacokinetics (PK) were obtained after single dose administration, cycle 1 day 1, and again at steady state, cycle 2 day 1. Serial venous blood samples were collected pre-dose and at 1, 2, 3, 4, 5, 6 and 12 hours after administration. Plasma concentrations of midazolam and nelfinavir were determined with a validated assay employing high performance liquid chromatography (HPLC) with mass spectrometric detection. Noncompartmental pharmacokinetic analyses were performed with WinNonlin 5.2 (Pharsight). Individual concentration-time profiles were constructed for each patient, course and drug resulting in four profiles per patient (two each for midazolam and nelfinavir). The maximum plasma concentration (Cmax) and the time of maximum plasma concentration (Tmax) were the observed values. Drug exposure was estimated using the area under the concentration-time curve (AUC). The area under the concentration-time curve (AUC) from time zero to the time of the final quantifiable sample (AUClast) was calculated using the linear trapezoidal method. The area under the concentration-time curve from time zero to infinity (AUCinf) was calculated by extrapolation, using the terminal rate constant from the last measurable concentration.

P-AKT S473 = test: Akt activation in PBMCs by immunoblotting; assay type: in vivo, human
Protocol: Blood was collected in Vacutainer CPT collection tubes with sodium heparin (BD Biosciences cat# 362753) and mononuclear cells were isolated as per the manufacturer's instructions. PBMCs were washed with PBS and lysed in 2X LSB buffer, aliquotted and stored at -80°C. For analysis, equal amounts of protein per sample were run on 10-12% SDS-PAGE gels, then transferred onto nitrocellulose membranes. Membranes were blocked in 5% milk in TBS + 0.1% tween (TBST) and incubated with primary antibody diluted in 5% BSA in TBST at 4 degrees overnight. The next day membranes were washed, incubated with HRP-linked secondary antibody and developed using ECL chemiluminescent reagent (GE Healthcare) and X-ray film as per the manufacturers instructions. […] Antibodies to CHOP sc-7351 and ATF3 sc-188 were from Santa Cruz Biotechnology (Santa Cruz, CA).

P-EIF2 alpha S51 = test: ER stress marker P-EIF2 alpha in PBMCs by immunoblotting; assay type: in vivo, human; conditions: DL4 (3125 mg bid), after 7 or 42 days; printed as 'the same percentage'
Protocol: (§1) Peripheral blood mononuclear cells (PBMCs) were collected at baseline, and then twice after starting nelfinavir: cycle 1 day 7 and cycle 1 day 42. Levels of P-AKT S473, P-EIF2 alpha S51, ATF3 and CHOP in PBMCs before and after nelfinavir were analyzed by immunoblotting. Blood was collected in Vacutainer CPT collection tubes with sodium heparin (BD Biosciences cat# 362753) and mononuclear cells were isolated as per the manufacturer's instructions. PBMCs were washed with PBS and lysed in 2X LSB buffer [33], aliquotted and stored at -80°C. For analysis, equal amounts of protein per sample were run on 10-12% SDS-PAGE gels, then transferred onto nitrocellulose membranes. Membranes were blocked in 5% milk in TBS + 0.1% tween (TBST) and incubated with primary antibody diluted in 5% BSA in TBST at 4 degrees overnight. The next day membranes were washed, incubated with HRP-linked secondary antibody and developed using ECL chemiluminescent reagent (GE Healthcare) and X-ray film as per the manufacturers instructions. The amount of P-AKT S473, P-EIF2 alpha S51, ATF3 or CHOP in the PBMCs at C1D7 and C1D42 were compared against a baseline sample for each patient, (prior to receiving nelfinavir). Antibodies against P-AKT S473 #4060, P-EIF2 alpha S51 #3398 and β-Actin #4970 were from Cell Signaling Technology (Danvers, MA). […]

ATF3 and/or CHOP = test: ER stress markers ATF3/CHOP in PBMCs by immunoblotting; assay type: in vivo, human; conditions: DL4 (3125 mg bid)
Protocol: as §1

[3] = Cycle 2 Day 1 steady state, 3125 mg bid, mean, n=6

With `Cc1c(O)cccc1C(=O)N[C@@H](CSc1ccccc1)[C@H](O)CN1C[C@H]2CCCC[C@H]2C[C@H]1C(=O)NC(C)(C)C` [nelfinavir, Nelfinavir] the “MTD relative to FDA-approved dose for HIV (fold/times)” value ([1]; 3125 mg bid vs doses typically used in HIV patients) was 2.5, the “onset of nelfinavir-induced neutropenia” value ([1]; human, in vivo) was at most 3 days and the “recovery of neutropenia after discontinuation of drug” value ([1]; human, in vivo) was at most 3 days. For the same compound, the “ALT increase, treatment-related AE in cycle 1” value ([1]; human, in vivo, 21 days) was 5 (20.8) N (%), the “Abdominal pain, treatment-related AE in cycle 1” value ([1]; human, in vivo, 21 days) was 1 (4.2) N (%) and the “Anemia, treatment-related AE in cycle 1” value ([1]; human, in vivo, 21 days) was 10 (41.7) N (%). For the same compound, the “Anorexia, treatment-related AE in cycle 1” value ([1]; human, in vivo, 21 days) was 1 (4.2) N (%), the “Belching, treatment-related AE in cycle 1” value ([1]; human, in vivo, 21 days) was 1 (4.2) N (%) and the “Bloating/, treatment-related AE in cycle 1” value ([1]; human, in vivo, 21 days) was 3 (12.5) N (%). The “Cholesterol increase, treatment-related AE in cycle 1” value ([1]; human, in vivo, 21 days) was 3 (12.5) N (%), the “Dehydration, treatment-related AE in cycle 1” value ([1]; human, in vivo, 21 days) was 2 (8.3) N (%) and the “Depression, treatment-related AE in cycle 1” value ([1]; human, in vivo, 21 days) was 1 (4.2) N (%). For the same compound, the “Diarrhea, treatment-related AE in cycle 1” value ([1]; human, in vivo, 21 days) was 12 (50.0) N (%), the “Fatigue, treatment-related AE in cycle 1” value ([1]; human, in vivo, 21 days) was 5 (20.8) N (%) and the “Flatulence, treatment-related AE in cycle 1” value ([1]; human, in vivo, 21 days) was 1 (4.2) N (%). The “Heartburn, treatment-related AE in cycle 1” value ([1]; human, in vivo, 21 days) was 1 (4.2) N (%), the “Hyperglycemia, treatment-related AE in cycle 1” value ([1]; human, in vivo, 21 days) was 4 (16.7) N (%) and the “Hyperkalemia, treatment-related AE in cycle 1” value ([1]; human, in vivo, 21 days) was 3 (12.5) N (%). The “Hypoalbuminemia, treatment-related AE in cycle 1” value ([1]; human, in vivo, 21 days) was 5 (20.8) N (%), the “Hypokalemia, treatment-related AE in cycle 1” value ([1]; human, in vivo, 21 days) was 1 (4.2) N (%) and the “Hyponatremia, treatment-related AE in cycle 1” value ([1]; human, in vivo, 21 days) was 2 (8.3) N (%). For the same compound, the “Hypophosphatemia, treatment-related AE in cycle 1” value ([1]; human, in vivo, 21 days) was 1 (4.2) N (%), the “Hypothyroid, treatment-related AE in cycle 1” value ([1]; human, in vivo, 21 days) was 1 (4.2) N (%) and the “Insomnia, treatment-related AE in cycle 1” value ([1]; human, in vivo, 21 days) was 1 (4.2) N (%). For the same compound, the “Leukopenia, treatment-related AE in cycle 1” value ([1]; human, in vivo, 21 days) was 4 (16.7) N (%), the “Lymphopenia, treatment-related AE in cycle 1” value ([1]; human, in vivo, 21 days) was 10 (41.7) N (%) and the “Nausea, treatment-related AE in cycle 1” value ([1]; human, in vivo, 21 days) was 2 (8.3) N (%). The “Neutropenia, treatment-related AE in cycle 1” value ([1]; human, in vivo, 21 days) was 5 (20.8) N (%), the “Palpitations, treatment-related AE in cycle 1” value ([1]; human, in vivo, 21 days) was 1 (4.2) N (%) and the “Thrombocytopenia, treatment-related AE in cycle 1” value ([1]; human, in vivo, 21 days) was 2 (8.3) N (%). The “anemia, treatment-related AE in cycle 1” value ([1]; human, in vivo, 21 days) was 41.7%, the “diarrhea, treatment-related AE in cycle 1” value ([1]; human, in vivo, 21 days) was 50% and the “fatigue, treatment-related AE in cycle 1” value ([1]; human, in vivo, 21 days) was 20.8%. The “hypoalbuminemia, treatment-related AE in cycle 1” value ([1]; human, in vivo, 21 days) was 20.8%, the “lymphopenia, treatment-related AE in cycle 1” value ([1]; human, in vivo, 21 days) was 41.7% and the “dose limiting toxicity (DLT)” value ([1]; human, in vivo, po) was “grade 4 neutropenia”. The cumulative toxicities ([1]; in vivo) was “No cumulative toxicities were observed”, the “maximum tolerated dose (MTD)” value ([1]; oral, twice daily, 21-day cycles, advanced solid tumors) was 3125 mg and the CL_F ([2]; Cycle 1 Day 1, first oral dose 3125 mg, mean, n=10) was 49,020 mL/h. For the same compound, the CL_F [2, 3] was 59,826 mL/h, the “Evening Trough” value [2, 3] was 2883 ng/mL and the “Morning Trough” value [2, 3] was 4597 ng/mL. For the same compound, the “doses above which PK showed potential non-linearity” value ([2]; human, in vivo) was 1875 to 2500 mg, the AUC(0-inf) ([2]; human, in vivo, po, 1250 mg) was 24500 ng·h/mL and the AUC(0-t) ([2]; human, in vivo, po, 1250 mg) was 16600 ng·h/mL. For the same compound, the CL_F ([2]; human, in vivo, po, 1250 mg) was 52,714 mL/h, the Cmax ([2]; human, in vivo, po, 1250 mg) was 2390 ng/mL and the Tmax ([2]; human, in vivo, po, 1250 mg) was 3.7 h. It also gave a half-life ([2]; human, in vivo, po, 1250 mg) of 6.6 h, an AUC(0-inf) ([2]; human, in vivo, po, 1875 mg) of 189000 ng·h/mL and an AUC(0-t) ([2]; human, in vivo, po, 1875 mg) of 73900 ng·h/mL. For the same compound, the CL_F ([2]; human, in vivo, po, 1875 mg) was 21,034 mL/h, the Cmax ([2]; human, in vivo, po, 1875 mg) was 10400 ng/mL and the Tmax ([2]; human, in vivo, po, 1875 mg) was 3.8 h. For the same compound, the half-life ([2]; human, in vivo, po, 1875 mg) was 11.9 h, the AUC(0-inf) ([2]; human, in vivo, po, 2500 mg) was 79400 ng·h/mL and the AUC(0-t) ([2]; human, in vivo, po, 2500 mg) was 61000 ng·h/mL. The CL_F ([2]; human, in vivo, po, 2500 mg) was 55,342 mL/h, the Tmax ([2]; human, in vivo, po, 2500 mg) was 6 h and the half-life ([2]; human, in vivo, po, 2500 mg) was 4.5 h. For the same compound, the AUC(0-inf) ([2]; human, in vivo, po, 3750 mg) was 131000 ng·h/mL, the AUC(0-t) ([2]; human, in vivo, po, 3750 mg) was 61500 ng·h/mL and the CL_F ([2]; human, in vivo, po, 3750 mg) was 52,114 mL/h. It also gave a Cmax ([2]; human, in vivo, po, 3750 mg) of 7920 ng/mL, a Tmax ([2]; human, in vivo, po, 3750 mg) of 2.7 h and a half-life ([2]; human, in vivo, po, 3750 mg) of 9.2 h. The Cmax ([2]; human, in vivo, Cycle 1 Day 1, first oral dose 2500 mg, mean, n=3, read-out: Cmax) was 9740 ng/mL, the AUC(0-inf) ([2]; human, in vivo, Cycle 1 Day 1, first oral dose 3125 mg, mean, n=10, read-out: AUCinf) was 140000 ng·h/mL and the half-life ([2]; human, in vivo, Cycle 1 Day 1, first oral dose 3125 mg, mean, n=10, read-out: T1/2 (converted)) was 9.2 h. The AUC(0-t) ([2]; human, in vivo, Cycle 1 Day 1, first oral dose 3125 mg, mean, n=13, read-out: AUClast) was 56900 ng·h/mL, the Cmax ([2]; human, in vivo, Cycle 1 Day 1, first oral dose 3125 mg, mean, n=13, read-out: Cmax) was 7640 ng/mL and the Tmax ([2]; human, in vivo, Cycle 1 Day 1, first oral dose 3125 mg, mean, n=13, read-out: Tmax) was 4.8 h. The Cmax ([2]; human, in vivo, Cycle 2 Day 1 steady state, 3125 mg bid, mean, n=7, read-out: Cmax) was 9550 ng/mL, the Tmax ([2]; human, in vivo, Cycle 2 Day 1 steady state, 3125 mg bid, mean, n=7, read-out: Tmax) was 3.3 h and the AUC(0-t) ([2]; human, in vivo, Cycle 2 Day 1 steady state, 3125 mg bid, mean, read-out: AUClast) was 60000 ng·h/mL. For the same compound, the “change of overall exposure or maximal plasma concentration with dose” value ([2]; in vivo) was “No increase”, the “dose linearity of first dose pharmacokinetics” value ([2]; in vivo, po) was “Non-linear pharmacokinetics” and the “subject PBMCs showing a decrease in P-AKT S473” value (P-AKT S473; DL4 (3125 mg bid), after 7 or 42 days) was 45%. The “effect on AKT in peripheral blood mononuclear cells” value (P-AKT S473; in vivo) was “inhibited AKT”, the “subject PBMCs showing an increase in P-EIF2 alpha S51” value (P-EIF2 alpha S51) was 45% and the “samples showing an increase in ATF3 and/or CHOP” value (ATF3 and/or CHOP) was 27%.
